Assay results published in PMC4613257, “Ile-1781-Leu and Asp-2078-Gly Mutations in ACCase Gene, Endow Cross-resistance to APP, CHD, and PPZ in Phalaris minor from Mexico” (International Journal of Molecular Sciences, 2015).
Read-outs that look alike come from different tables or passages of the source.

Molecular target: ACCase
Settings: read-out: I50, R biotype, both substitutions found, zygosity not given, stated gain, pH 8.3, 34 °C, 1.5 mM ATP, 5 mM MgCl2, 15 mM NaH14CO3, 5 mM acetyl-CoA
Excerpt: ATP-dependent NaH14CO3 incorporation into acid-stable product on ACCase

Row | SMILES | IC50 [µM] | also measured
1 | CCc1cc(C)cc(CC)c1-c1c(OC(=O)C(C)(C)C)n2n(c1=O)CCOCC2 [pinoxaden] | 9.13 | 
2 | CC(Oc1ccc(Oc2ccc(Cl)cc2Cl)cc1)C(=O)O (stereo not drawn) [diclofop acid] |  | IC50 (table prints the methyl ester, methods list the acid): 7.14 µM
3 | CC(Oc1ccc(Oc2nc3ccc(Cl)cc3o2)cc1)C(=O)O (stereo not drawn) [Fenoxaprop acid] |  | IC50 (table prints the ethyl ester, methods state the acid): 7.85 µM
4 | C[C@@H](Oc1ccc(Oc2ccc(C#N)cc2F)cc1)C(=O)O [cyhalofop acid] |  | IC50 (table prints the butyl ester, methods list the acid): 77.7 µM
5 | CCCC(=NOCC)C1=C(O)CC(CC(C)SCC)CC1=O (stereo not drawn) [sethoxydim] | 1500 | 
6 | CCON=C(CC)C1=C(O)CC(c2c(C)cc(C)cc2C)CC1=O (stereo not drawn) [tralkoxydim] | 8.81 | 
